# Experimental data taken from patent US9532569B2 (INSTITUT NATIONAL DE LA RECHERCHE AGRONOMIQUE, priority 2012, dated 2017).
# How the values were obtained:
# MRC5 cells = assay: In vitro cytotoxicity study on MRC5 cells (MTS); assay type: cell-based, human
# Description: The cytotoxicity of the compound (IIa) according to the invention, and that of GR24 and of GR5 as comparative compounds, was evaluated in vitro, at concentrations of 10^−4 M and 10^−5 M, on MRC5 cells, in DMSO, in the following way.
# MRC5 cells (human lung (fibroblasts) were cultured in Dulbecco's modified Eagle medium (DMEM) supplemented with: 25 mM of glucose, 10% (v/v) of fetal calf serum, 100 IU of penicillin, 100 μg/ml of streptomycin and 1.5 μg/ml of fungizone, and kept under 5% of CO2 at 37° C.
# 96-well plates were seeded with 2100 MRC5 cells per well in 200 μl of medium. After 24 hours, each of the compounds dissolved in DMSO was added for 72 hours, at a final concentration of 10^−4 M or 10^−5 M in a fixed volume of DMSO. The controls received an equal volume of DMSO.
# The viable cell number was measured at 490 nm with the MTS reagent (Promega), and, for each compound, the concentration causing 50% inhibition of cell growth, IC50, was calculated.
# pea rms1 mutants = assay: Hydroponic culture test in pea; assay type: in vivo, Pisum sativum L.; conditions: 1 μM in hydroponic culture solution, 8 days
# Description: For this example, ramosus (rms1) hyperbranched pea (Pisum sativum L.) mutants were used.
# More particularly, rms1 (rms1-10) hyperbranched mutant plants were used. The nutritive solution (100%) was prepared by adding the following macronutrients to 1000 l of water: HNO3 (0.28 l), (NH4)2HPO4 (120 g), Ca(NO3)2 (40 g), Mg(NO3)2 (140 g), KNO3 (550 g), (NH4)2MoO4 (0.05 g), H3BO3 (15 g), MnSO4.H2O (2 g), ZnSO4.7H2O (1 g), CuSO4.5H2O (0.25 g), Sequestrene® (10 g) (Fe-EDTA solution). The pea seeds were germinated in moist sand for 6 days, then placed in holes of a lid (35 holes/lid, 20 mm in diameter) of an opaque PVC pot containing the hydroponic culture solution (47 l, pH 5.8).
# In a first experiment, acetone or the compound to be tested (dissolved in acetone) was added to the hydroponic culture solution so as to obtain a final concentration of 0 or 1 μM of compound to be tested and 0.01% of acetone.
# The hydroponic culture solution was continually aerated by means of an aquarium pump and replaced each week. 8 days after the start of the treatment, the lengths of bud/branch (nodes 1 to 6) were measured with an electronic sliding caliper.
# This experiment was carried out for the compounds according to the invention (IIa) and (IIIb), and also the GR24 compound as comparative compound. A negative control (<<CTL 0>>), corresponding to a treatment with the solvent alone, was also carried out.
# The results (mean data on 20 plants), in terms of, on the one hand, length of the branches at nodes 3 to 5 and, on the other hand, plant height, are shown respectively in FIGS. 11 and 12.
# The same experiment was carried out for the compound in accordance with the invention (II″g) and the comparative compound GR24. Dimethyl sulfoxide (DMSO) or the compound to be tested, dissolved in DMSO, was added to the hydroponic culture solution so as to obtain a final concentration of 0 or 3 μM of compound to be tested and 0.01% of DMSO.
# The results (mean data on 10 to 12 plants), in terms, on the one hand, of length of the branches at nodes 3 to 4 and, on the other hand, of plant height, are shown respectively in FIGS. 13 and 14.
# pea rms4 mutant = assay type: in vivo, Pisum sativum L.
# Description: The protocol used is in accordance with that described in example 4 above. Compound concentrations of 100 nM and 3 μM were tested. A negative control consisting of the solvent alone (<<CTL 0>>) was also tested.
# The number of dead buds following the treatment with 3 μM of compound was also determined after 8 days of treatment (on groups of 48 plants).
# Striga hermonthica = assay: Germinative activity on parasitic plants; assay type: in vivo; conditions: counted after 4 days, 30° C.
# Description: In this example, the germinative activity of the compounds in accordance with the invention (IIa) and (IIIb) and of the comparative compound GR24 was evaluated on the parasitic plants: Orobanche cumana, Orobanche minor, Striga hermonthica, Phelipanche ramosa (pv T and pv C).
# The test protocol used was the following.
# Seeds of Striga hermonthica (Del.) Benth were collected at Gadarif, Eastern Sudan, in 1999.
# The seeds are stored dry in the dark at 25° C.
# The compounds to be studied were resuspended in acetone at 10 mmol·l^−1, then diluted with water to 1 mmol·l^−1 (water/acetone; v/v; 99/1). Dilutions of 1×10^−3 mol·l^−1 to 1×10^−15 mol·l^−1 were then prepared in a water/acetone mixture (v/v; 99/1). Seeds of parasitic plants were surface-sterilized according to the protocol described in the publication by Vieira Dos Santos et al. (2003), then resuspended in sterile water (10 g·l^−1) and distributed on a 96-well plate (in a proportion of 50 μl, i.e. approximately 100 seeds per well). After preconditioning (7 days, 21° C., in the dark, plate hermetically sealed, except for the seeds of S. hermonthica, which were preconditioned at 30° C.), the compounds to be studied were added and the volumes adjusted to 100 μl with water (water/acetone; v/v; 999/1).
# In a plate, a range of concentrations from 10^−13 mol·l^−1 to 10^−6 mol·l^−1 was applied for GR24 and (IIa) and from 10^−12 to 10^−5 mol·l^−1 for (IIIb). Controls were carried out with a water/acetone mixture (v/v; 999/1) and without seeds. The plates were incubated so as to allow germination (21° C., in the dark or 30° C. for Striga hermonthica.). After 4 days, the seeds which had germinated were counted under a stereomicroscope (SZX10, Olympus). […] For each compound tested, dose-response curves (g=f(c), where g is the germination percentage and c the concentration (mol·l^−1)), and the EC50 (median effective concentration) were modeled on the basis of a 4-parameter logistic curve calculated with SigmaPlot® 10.0.
# The percentages of maximum germination induced by the compounds tested for each parasitic plant were determined.
structure (smiles),measurement,setting,value
"CC1=C(C)C(Sc2ccc(Cl)cc2)OC1=O (centres unmarked) [Compound (IIa), 5-((4-chlorophenyl)thio)-3,4-dimethylfuran-2(5H)-one]",inhibition at 100 µM,"MRC5 cells; Homo sapiens, MRC5, 10^−4M, 72 hours, ± standard error, read-out: Percentage inhibition of MRC5 cell growth",11 ± 5%
same,inhibition at 10 µM,"MRC5 cells; Homo sapiens, MRC5, 10^−5M, 72 hours, ± standard error, read-out: Percentage inhibition of MRC5 cell growth",7 ± 4%
same,cytotoxicity compared with GR5 and GR24,MRC5 cells; concentration of 10^−4 M,cytotoxicity which is much lower than that of the comparative compounds GR5 and GR24
same,length of the branches at nodes 3 to 5,pea rms1 mutants; FIG. 11,activity of the compounds in accordance with the invention (IIa) and (IIIb) on all the branches of nodes 3 to 5
same,plant height,pea rms1 mutants; FIG. 12,"significant effect on plant height is also demonstrated, comparable between the comparative compound GR24 and the compound in accordance with the invention (IIa)"
same,length of bud/branch at node 3 (toxicity),"pea rms4 mutant; 100 nM and 3 μM, 8 days after treatment at node 3, FIG. 15","absence of effects of the compounds in accordance with the invention (IIa) and (IIIb) compared with a negative control, and between the two treatment doses"
same,number of dead buds after treatment,"pea rms4 mutant; 3 μM, 8 days of treatment, groups of 48 plants, FIG. 16",no significant difference is notable regarding the number of dead buds following the treatment
same,Percentage of maximum germination induced,Striga hermonthica,no (no significant germination compared to the negative control (<2%))
